Consider 26 molecules from patent US8653087B2, “Pyrido [5, 4-D] pyrimidines as cell proliferation inhibitors” (Boehringer Ingelheim International GmbH, priority 2008, dated 2014).

Where only a bound is given, the exact number is not on record here.

In the assay the target is B-Raf (V600E)-kinase (Homo sapiens (Human), UniProt P15056, V600E). As to the kind of experiment: Kinase test B-RAF (V600E). It counts as biochemical. Conditions: B-RAF (V600E) kinase test, 250 μM ATP. On the procedure:
Kinase Test B-RAF (V600E)
In a dilution series 10 μL of test substance solution are placed in a multiwell plate. The dilution series is selected so that generally a range of concentrations of 2 μM to 0.119 nM or 0.017 nM is covered. If necessary the initial concentration of 2 μM is changed to 50 μM, 10 μM or 0.4 μM or 0.2857 μM and further dilution is carried out accordingly. The final concentration of DMSO is 5%. 10 μL of the B-Raf (V600E)-kinase solution are pipetted in (containing 0.5 ng B-Raf (V600E)-kinase in 20 mM Tris-HCl pH 7.5, 0.1 mM EDTA, 0.1 mM EGTA, 0.286 mM sodium orthovanadate, 10% glycerol, 1 mg/mL bovine serum albumin, 1 mM dithiothreitol) and the mixture is incubated for 24 h at RT under with shaking. The kinase reaction is started by the addition of 20 μL ATP solution [final concentration: 250 μM ATP, 30 mM Tris-HCl pH 7.5, 0.02% Brij, 0.2 mM sodium orthovanadate, 10 mM magnesium acetate, 0.1 mM EGTA, phosphatase cocktail (Sigma, # P2850, dilution recommended by the manufacturer), 0.1 mM EGTA] and 10 μL MEK1 solution [containing 50 ng biotinylated MEK1 (prepared from purified MEK1 according to standard procedure, e.g. with EZ-Link Sulpho-NHS-LC-Biotin reagent, Pierce, #21335) and carried out for 60 min at RT with constant shaking. The reaction is stopped by the addition of 12 μL of a 100 mM EDTA solution and incubation is continued for a further 5 min. 55 μL of the reaction solution are transferred into a streptavidin-coated plate (e.g. Streptawell HighBond, Roche, #11989685001) and shaken gently for 1 h at RT, in order to bind biotinylated MEK1 to the plate. After elimination of the liquid the plate is washed five times with 200 μL of 1×PBS and 100 μL solution of primary antibody plus europium-labelled secondary antibody [Anti Phospho-MEK (Ser217/221), Cell Signaling, #9121 and Eu-N1 labeled goat-anti-rabbit antibody, Perkin Elmer, # AD0105], the primary antibody is diluted 1:2000 and the secondary antibody is diluted to 0.4-0.5 μg/mL in Delfia Assay Buffer (Perkin Elmer, #1244-111). After 1 h shaking at RT the solution is poured away and washed five times with 200 μL Delfia Wash Buffer (Perkin Elmer, #4010-0010/#1244-114). After the addition of 200 μL Enhancement Solution (Perkin Elmer, #4001-0010/#1244-105) the mixture is shaken for 10 min at RT and then measured in a Wallac Victor using the program “Delfia Time Resolved Fluorescence (Europium)”. IC50 values are obtained from these dosage-activity curves using a software program (GraphPadPrizm).

Sequence of B-Raf (V600E)-kinase (P15056 whole entry V600E): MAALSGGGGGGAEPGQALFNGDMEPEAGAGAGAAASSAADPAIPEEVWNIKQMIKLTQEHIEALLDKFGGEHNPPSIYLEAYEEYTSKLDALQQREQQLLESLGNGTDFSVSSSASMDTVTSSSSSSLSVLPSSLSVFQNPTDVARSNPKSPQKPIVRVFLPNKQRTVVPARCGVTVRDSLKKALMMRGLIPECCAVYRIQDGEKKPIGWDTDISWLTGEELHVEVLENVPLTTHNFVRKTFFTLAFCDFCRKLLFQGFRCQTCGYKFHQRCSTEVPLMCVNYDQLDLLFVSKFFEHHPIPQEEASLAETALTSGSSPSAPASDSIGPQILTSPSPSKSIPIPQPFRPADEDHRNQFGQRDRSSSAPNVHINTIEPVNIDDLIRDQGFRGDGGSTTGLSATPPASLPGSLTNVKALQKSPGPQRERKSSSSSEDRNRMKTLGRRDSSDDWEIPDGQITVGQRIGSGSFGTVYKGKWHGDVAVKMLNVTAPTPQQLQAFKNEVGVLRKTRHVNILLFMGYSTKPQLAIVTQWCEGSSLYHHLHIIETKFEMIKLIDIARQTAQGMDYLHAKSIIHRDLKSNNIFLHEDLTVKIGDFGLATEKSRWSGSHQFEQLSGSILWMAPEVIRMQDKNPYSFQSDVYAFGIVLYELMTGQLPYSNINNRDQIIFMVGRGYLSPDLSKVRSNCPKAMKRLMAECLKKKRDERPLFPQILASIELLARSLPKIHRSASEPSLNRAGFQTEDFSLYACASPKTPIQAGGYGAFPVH

What is called IC50 is the concentration needed to halve the response being measured. A low value points to inhibition by little substance. In turn, `Cc1ccc(C(=O)Nc2cccc(C(F)(F)F)c2)cc1Nc1ncnc2c(N)nc(N3CC(C)NC(C)C3)nc12` (centres unmarked) [I-62] registered an IC50 of 2 nM. For `Cc1ccc(C(=O)Nc2cccc(C(F)(F)F)c2)cc1Nc1ncnc2c(N)nc(N3CCCN(c4ncccn4)CC3)nc12` [I-63] the value was 1 nM; for `Cc1ccc(C(=O)Nc2cccc(C(F)(F)F)c2)cc1Nc1ncnc2c(N)nc(N3CCN(C(C)C)CC3)nc12` [I-64], below 1 nM. As for `Cc1ccc(C(=O)Nc2cccc(C(F)(F)F)c2)cc1Nc1ncnc2c(N)nc(N3C[C@H]4C[C@@H]3CN4C)nc12` [I-65], the figure is below 1 nM. With `Cc1ccc(C(=O)Nc2cccc(C(F)(F)F)c2)cc1Nc1ncnc2c(N)nc(N3CCNCC3)nc12` [I-66], the IC50 is below 1 nM. As to `Cc1ccc(C(=O)Nc2cccc(C(F)(F)F)c2)cc1Nc1ncnc2c(N)nc(N3CCCN(c4ccccn4)CC3)nc12` [I-67], 3 nM corresponded to half-maximal inhibition (IC50). That is a single-digit nanomolar value.

For the molecule `Cc1ccc(C(=O)Nc2cccc(C(F)(F)F)c2)cc1Nc1ncnc2c(N)nc(N3CCCN(C)CC3)nc12` [I-68], the IC50 is below 1 nM. `Cc1ccc(C(=O)Nc2cc(C(C)(C)C)n[nH]2)cc1Nc1ncnc2c(N)nc(N3C[C@@H]4C[C@H]3CN4)nc12` [I-69] had an IC50 of 2 nM.

On to `Cc1ccc(C(=O)Nc2cc(N(C)CCN(C)C)cc(C(F)(F)F)c2)cc1Nc1ncnc2c(N)nc(N3CCCOCC3)nc12` [I-70], for which the IC50 was 3 nM. For `Cc1ccc(C(=O)Nc2ccc(C#N)c(C(F)(F)F)c2)cc1Nc1ncnc2c(N)nc(N3CCN(C)CC3)nc12` [I-71] the value was 7 nM; for `Cc1ccc(C(=O)Nc2cc(C(C)(C)C)nn2C)cc1Nc1ncnc2c(N)nc(N3CCN(C)CC3)nc12` [I-72], 12 nM; for `Cc1ccc(C(=O)Nc2cc(C(F)(F)F)ccn2)cc1Nc1ncnc2c(N)nc(N3CCN(C)CC3)nc12` [I-73], 2 nM. As for `Cc1ccc(C(=O)Nc2ccc(Cl)c(C(F)(F)F)c2)cc1Nc1ncnc2c(N)nc(N3CCN(C)CC3)nc12` [I-74], the figure is 3 nM; as for `Cc1cn(-c2cc(NC(=O)c3ccc(C)c(Nc4ncnc5c(N)nc(N6CCN(C)CC6)nc45)c3)cc(C(F)(F)F)c2)cn1` [I-75], 54 nM. Molecule `Cc1ccc(C(=O)Nc2cc(N(C)CCN(C)C)cc(C(F)(F)F)c2)cc1Nc1ncnc2c(N)nc(N3CCOCC3)nc12` [I-76] gave an IC50 of 1 nM. As for `CCN1CCN(c2cc(NC(=O)c3ccc(C)c(Nc4ncnc5c(N)nc(N6CCOCC6)nc45)c3)cc(C(F)(F)F)c2)CC1` [I-77], the IC50 is 2 nM. As for `Cc1ccc(C(=O)Nc2cc(N(C)CCN(C)C)cc(C(F)(F)F)c2)cc1Nc1ncnc2c(N)nc(N(C)C)nc12` [I-78], the figure is 8 nM; as for `CCN1CCN(c2cc(NC(=O)c3ccc(C)c(Nc4ncnc5c(N)nc(N(C)C)nc45)c3)cc(C(F)(F)F)c2)CC1` [I-79], 19 nM; as for `Cc1ccc(C(=O)Nc2cccc(C(C)(C)C)c2)cc1Nc1ncnc2c(N)nc(N3CCN(C)CC3)nc12` [I-80], 2 nM. As for `CCN1CCN(c2cc(NC(=O)c3ccc(C)c(Nc4ncnc5c(N)nc(N6CCCOCC6)nc45)c3)cc(C(F)(F)F)c2)CC1` [I-81], the figure is 3 nM. Regarding `CN1CCN(c2nc(N)c3ncnc(Nc4ccc(F)c(C(=O)Nc5cc(C(C)(C)C)n[nH]5)c4)c3n2)CC1` [I-82], half-maximal inhibition (IC50) was put at 676 nM. As for `CC(C)CN1CCN(c2nc(N)c3ncnc(Nc4ccc(F)c(C(=O)Nc5cc(C(C)(C)C)n[nH]5)c4)c3n2)CC1` [I-83], the figure is 2200 nM.

With `Cc1ccc(C(=O)Nc2cc(C(C)(C)C)nn2C)cc1Nc1ncnc2c(N)nc(N3CCN(CC(C)C)CC3)nc12` [I-84], half-maximal inhibition (IC50) was put at 11 nM. Against the preceding molecule, the IC50 is about 200-fold lower. Regarding `Cc1ccc(C(=O)Nc2cc(C(C)(C)C)nn2C)cc1Nc1ncnc2c(N)nc(N3CCN4CCCC4C3)nc12` (centres unmarked) [I-85], the IC50 is 7 nM.

`Cc1ccc(C(=O)Nc2cc(N(C)CCN(C)C)cc(C(F)(F)F)c2)cc1Nc1ncnc2c(N)nc(N3CC[C@H](F)C3)nc12` [I-86] returned an IC50 of 4 nM. This IC50 lies about 1.8-fold lower than the previous one.

As for `CCN1CCN(c2cc(NC(=O)c3ccc(C)c(Nc4ncnc5c(N)nc(N6CCCC6)nc45)c3)cc(C(F)(F)F)c2)CC1` [I-87], half-maximal inhibition (IC50) required 9 nM.
